Results taken from ChEMBL document CHEMBL5665443, “Enzyme Inhibitor Single Concentration assay results for EUbOPEN Chemogenomics Library” (2024).

What was measured:
[1] = molecular target: Methyl-CpG-binding domain protein 4 (Homo sapiens) (UniProt O95243); settings: Hit No;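 note: MBD4 activity read as fluorescence at 594 nm from cleavage and release of a quenched duplex DNA oligonucleotide, with APE1 coupled to incise the strand and raise turnover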
Description: Inhibition of MBD4 by quantifying inhibition of MBD4-mediated cleavage and dissociation of quenched duplex DNA oligonucleotides, measured as fluorescence at 594 nm. To generate a functional strand incision and increase turn-over this assay is coupled to APE1.

[2] = molecular target: G/T mismatch-specific thymine DNA glycosylase (Homo sapiens) (UniProt Q13569); settings: Hit No;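 note: human TDG cleavage of quenched duplex DNA oligonucleotides coupled to APE1, strand release read as fluorescence at 594 nm, inhibition of TDG activity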
Chain of G/T mismatch-specific thymine DNA glycosylase (Homo sapiens) (Q13569 whole entry): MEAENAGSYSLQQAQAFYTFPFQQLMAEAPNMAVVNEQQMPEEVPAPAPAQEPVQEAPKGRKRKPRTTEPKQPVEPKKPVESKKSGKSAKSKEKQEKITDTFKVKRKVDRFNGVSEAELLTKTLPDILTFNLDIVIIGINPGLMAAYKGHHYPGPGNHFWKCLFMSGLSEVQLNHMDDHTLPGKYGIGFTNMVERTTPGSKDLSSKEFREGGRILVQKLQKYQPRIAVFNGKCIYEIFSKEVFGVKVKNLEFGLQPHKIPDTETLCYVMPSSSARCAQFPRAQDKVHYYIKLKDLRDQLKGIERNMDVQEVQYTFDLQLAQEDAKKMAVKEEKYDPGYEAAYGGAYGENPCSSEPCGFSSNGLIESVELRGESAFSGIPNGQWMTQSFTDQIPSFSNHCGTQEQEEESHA
Description: Inhibition of TDG by quantifying inhibition of TDG-mediated cleavage and dissociation of quenched duplex DNA oligonucleotides, measured as fluorescence at 594 nm. To generate a functional strand incision and increase turn-over this assay is coupled to APE1.

[3] = molecular target: Uracil-DNA glycosylase (Homo sapiens) (UniProt P13051); settings: Hit No;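 note: UNG excision on a quenched double-stranded DNA oligo probe, with APE1 added for strand incision and turnover, read as fluorescence at 594 nm as strands separate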
Chain of Uracil-DNA glycosylase (Homo sapiens) (P13051 whole entry): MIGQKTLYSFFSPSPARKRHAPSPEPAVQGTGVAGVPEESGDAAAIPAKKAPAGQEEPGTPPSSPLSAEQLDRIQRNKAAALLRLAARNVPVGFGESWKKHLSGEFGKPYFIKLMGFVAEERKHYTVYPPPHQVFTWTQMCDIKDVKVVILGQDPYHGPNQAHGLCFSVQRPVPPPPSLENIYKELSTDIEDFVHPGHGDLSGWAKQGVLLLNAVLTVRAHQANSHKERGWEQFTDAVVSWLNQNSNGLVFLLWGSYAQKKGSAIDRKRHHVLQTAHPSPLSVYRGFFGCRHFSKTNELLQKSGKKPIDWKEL
Description: Inhibition of UNG by quantifying inhibition of UNG-mediated cleavage and dissociation of quenched duplex DNA oligonucleotides, measured as fluorescence at 594 nm. To generate a functional strand incision and increase turn-over this assay is coupled to APE1.

[4] = molecular target: T1, Endonuclease 8-like 2 (Homo sapiens) (UniProt Q969S2); settings: Hit No;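 note: fluorescence at 594 nm reports NEIL2 cutting and release of a quenched double-stranded DNA oligo substrate, reduced signal read as inhibition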
T1 sequence (whole entry): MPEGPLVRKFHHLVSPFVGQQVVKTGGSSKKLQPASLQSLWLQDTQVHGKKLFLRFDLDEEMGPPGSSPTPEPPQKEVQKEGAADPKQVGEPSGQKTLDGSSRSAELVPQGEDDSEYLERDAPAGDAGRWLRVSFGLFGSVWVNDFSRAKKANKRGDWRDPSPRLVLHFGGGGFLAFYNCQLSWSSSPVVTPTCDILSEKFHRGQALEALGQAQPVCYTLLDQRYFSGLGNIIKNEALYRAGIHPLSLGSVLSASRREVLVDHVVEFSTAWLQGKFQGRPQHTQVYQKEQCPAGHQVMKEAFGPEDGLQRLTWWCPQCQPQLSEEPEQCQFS
Description: Inhibition of NEIL2 by quantifying inhibition of NEIL2-mediated cleavage and dissociation of quenched duplex DNA oligonucleotides, measured as fluorescence at 594 nm.

[5] = molecular target: T2, Adenine DNA glycosylase (Homo sapiens) (UniProt Q9UIF7); settings: Hit No;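 note: human MUTYH activity read as 594 nm fluorescence from cleavage and release of a quenched DNA duplex, coupled with APE1 for strand incision, lower signal meaning inhibition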
T2 sequence (whole entry): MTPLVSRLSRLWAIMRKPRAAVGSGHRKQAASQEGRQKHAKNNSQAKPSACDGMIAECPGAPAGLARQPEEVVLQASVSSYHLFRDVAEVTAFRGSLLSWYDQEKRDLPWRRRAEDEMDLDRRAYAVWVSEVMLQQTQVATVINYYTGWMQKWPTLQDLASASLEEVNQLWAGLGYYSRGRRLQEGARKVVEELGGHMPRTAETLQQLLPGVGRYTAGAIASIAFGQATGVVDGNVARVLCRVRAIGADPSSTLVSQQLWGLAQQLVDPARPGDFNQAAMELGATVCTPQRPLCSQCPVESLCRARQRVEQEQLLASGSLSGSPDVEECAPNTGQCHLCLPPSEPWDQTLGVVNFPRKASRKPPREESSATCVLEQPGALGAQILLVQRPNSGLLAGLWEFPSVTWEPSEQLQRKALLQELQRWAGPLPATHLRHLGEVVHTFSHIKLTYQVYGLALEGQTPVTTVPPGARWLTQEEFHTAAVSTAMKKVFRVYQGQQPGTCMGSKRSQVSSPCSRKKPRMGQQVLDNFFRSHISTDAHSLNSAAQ
Description: Inhibition of MUTYH by quantifying inhibition of MUTYH-mediated cleavage and dissociation of quenched duplex DNA oligonucleotides, measured as fluorescence at 594 nm. To generate a functional strand incision and increase turn-over this assay is coupled to APE1.

[6] = molecular target: T3, Endonuclease III-like protein 1 (Homo sapiens) (UniProt P78549); settings: Hit No;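 note: enzyme assay tracking NTHL1 cutting and release of a quenched double-stranded DNA oligo substrate, read as fluorescence at 594 nm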
T3 sequence (whole entry): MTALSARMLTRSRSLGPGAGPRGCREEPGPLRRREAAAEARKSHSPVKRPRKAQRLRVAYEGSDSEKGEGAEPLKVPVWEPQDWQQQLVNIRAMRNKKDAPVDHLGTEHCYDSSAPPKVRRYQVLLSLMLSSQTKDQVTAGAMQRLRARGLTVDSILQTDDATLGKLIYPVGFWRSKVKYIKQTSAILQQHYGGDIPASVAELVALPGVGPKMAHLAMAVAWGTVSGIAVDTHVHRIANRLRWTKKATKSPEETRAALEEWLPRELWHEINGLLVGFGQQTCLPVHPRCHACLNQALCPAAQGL
Description: Inhibition of NTHL1 by quantifying inhibition of NTHL1-mediated cleavage and dissociation of quenched duplex DNA oligonucleotides, measured as fluorescence at 594 nm.

[7] = molecular target: T4, Single-strand selective monofunctional uracil DNA glycosylase (Homo sapiens) (UniProt Q53HV7); settings: Hit No;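 note: enzymatic SMUG1 assay coupled with APE1, reading fluorescence at 594 nm released when a quenched double-stranded DNA oligonucleotide substrate is cleaved and separated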
T4 sequence (whole entry): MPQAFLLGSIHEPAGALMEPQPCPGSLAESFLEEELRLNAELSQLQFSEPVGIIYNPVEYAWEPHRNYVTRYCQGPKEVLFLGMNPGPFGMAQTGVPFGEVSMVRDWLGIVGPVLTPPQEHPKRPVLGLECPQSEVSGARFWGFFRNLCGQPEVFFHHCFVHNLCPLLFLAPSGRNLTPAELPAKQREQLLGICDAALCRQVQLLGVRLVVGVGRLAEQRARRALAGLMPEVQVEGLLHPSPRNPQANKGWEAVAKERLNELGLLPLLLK
Description: Inhibition of SMUG1 by quantifying inhibition of SMUG1-mediated cleavage and dissociation of quenched duplex DNA oligonucleotides, measured as fluorescence at 594 nm. To generate a functional strand incision and increase turn-over this assay is coupled to APE1.

[8] = molecular target: N-glycosylase/DNA lyase (Homo sapiens) (UniProt O15527); settings: Hit No;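 note: OGG1 cleavage of a quenched duplex DNA oligonucleotide, coupled to APE1 for strand incision, read as fluorescence at 594 nm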
Chain of N-glycosylase/DNA lyase (Homo sapiens) (O15527 whole entry): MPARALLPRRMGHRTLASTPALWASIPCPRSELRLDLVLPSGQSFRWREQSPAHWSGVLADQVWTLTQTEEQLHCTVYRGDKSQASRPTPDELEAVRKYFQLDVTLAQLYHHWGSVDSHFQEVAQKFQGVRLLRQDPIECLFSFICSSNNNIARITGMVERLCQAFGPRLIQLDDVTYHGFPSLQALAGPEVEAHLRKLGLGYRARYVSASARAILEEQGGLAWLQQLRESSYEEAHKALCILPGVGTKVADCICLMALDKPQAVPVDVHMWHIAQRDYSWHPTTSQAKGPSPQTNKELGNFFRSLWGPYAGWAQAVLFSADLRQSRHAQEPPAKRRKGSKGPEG
Description: Inhibition of OGG1 by quantifying inhibition of OGG1-mediated cleavage and dissociation of quenched duplex DNA oligonucleotides, measured as fluorescence at 594 nm. To generate a functional strand incision and increase turn-over this assay is coupled to APE1.

[9] = molecular target: Endonuclease 8-like 1 (Homo sapiens) (UniProt Q96FI4); settings: Compound Concentration 10.0 uM, Hit No;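 note: fluorescence at 594 nm from quenched duplex DNA oligonucleotides released by NEIL1 cleavage and strand separation, reported as reduction of this enzyme activity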
Chain of Endonuclease 8-like 1 (Homo sapiens) (Q96FI4 whole entry): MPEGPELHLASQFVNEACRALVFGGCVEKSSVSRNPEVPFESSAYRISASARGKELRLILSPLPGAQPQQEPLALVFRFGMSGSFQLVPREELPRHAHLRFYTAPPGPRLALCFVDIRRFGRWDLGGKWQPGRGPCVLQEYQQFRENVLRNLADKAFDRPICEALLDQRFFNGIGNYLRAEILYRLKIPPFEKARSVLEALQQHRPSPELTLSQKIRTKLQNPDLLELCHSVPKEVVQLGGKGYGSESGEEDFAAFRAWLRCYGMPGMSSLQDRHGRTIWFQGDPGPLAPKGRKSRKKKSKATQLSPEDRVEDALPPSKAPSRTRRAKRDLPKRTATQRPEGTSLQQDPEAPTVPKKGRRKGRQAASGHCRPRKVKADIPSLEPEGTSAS
Description: Inhibition of NEIL1 by quantifying inhibition of NEIL1-mediated cleavage and dissociation of quenched duplex DNA oligonucleotides, measured as fluorescence at 594 nm.

Chain of Methyl-CpG-binding domain protein 4 (Homo sapiens) (O95243 whole entry, the tested form may be a part): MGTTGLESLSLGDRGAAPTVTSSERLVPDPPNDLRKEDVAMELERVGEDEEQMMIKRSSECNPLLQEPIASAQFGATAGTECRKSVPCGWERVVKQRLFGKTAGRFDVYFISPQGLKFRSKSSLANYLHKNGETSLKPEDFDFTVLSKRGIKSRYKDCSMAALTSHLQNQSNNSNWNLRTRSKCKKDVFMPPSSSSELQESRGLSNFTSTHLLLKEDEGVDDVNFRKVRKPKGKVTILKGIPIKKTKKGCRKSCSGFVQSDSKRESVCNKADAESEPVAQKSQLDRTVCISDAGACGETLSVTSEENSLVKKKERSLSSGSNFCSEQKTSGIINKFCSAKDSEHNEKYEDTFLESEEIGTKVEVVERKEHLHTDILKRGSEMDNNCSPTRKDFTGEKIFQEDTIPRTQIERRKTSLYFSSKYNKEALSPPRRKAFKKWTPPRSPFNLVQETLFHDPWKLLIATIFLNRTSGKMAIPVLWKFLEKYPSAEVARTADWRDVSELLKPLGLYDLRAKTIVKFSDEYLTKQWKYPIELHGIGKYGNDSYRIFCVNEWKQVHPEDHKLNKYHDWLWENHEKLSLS

Compound	inhibition ([1]; Compound Concentration 1.0 uM) [%]	inhibition ([1]; Compound Concentration 10.0 uM) [%]	inhibition ([2]; Compound Concentration 1.0 uM) [%]	inhibition ([2]; Compound Concentration 10.0 uM) [%]	inhibition ([3]; Compound Concentration 1.0 uM) [%]	inhibition ([3]; Compound Concentration 10.0 uM) [%]	inhibition ([4]; Compound Concentration 10.0 uM) [%]	inhibition ([5]; Compound Concentration 1.0 uM) [%]	inhibition ([6]; Compound Concentration 1.0 uM) [%]	inhibition ([6]; Compound Concentration 10.0 uM) [%]	inhibition ([7]; Compound Concentration 1.0 uM) [%]	inhibition ([7]; Compound Concentration 10.0 uM) [%]	inhibition ([8]; Compound Concentration 10.0 uM) [%]	inhibition ([4]; Compound Concentration 1.0 uM) [%]	inhibition ([8]; Compound Concentration 1.0 uM) [%]	inhibition ([5]; Compound Concentration 10.0 uM) [%]	inhibition [9] [%]
CN1CCN(C(=O)C(C)(C)c2ccc(C(=O)Nc3cn4cc(-c5cc(C(C)(C)C)cc(C(C)(C)C)c5)ccc4n3)cc2)CC1	-6.71	-6.81	41	15.4	3.16	2.56	-7.12	-8.55	-0.61	-6.55	20	11.1	18.8				
CN1C(=O)[C@@H](N2CCc3cn(Cc4ccccc4)nc3C2=O)COc2ccccc21	21.1		42.8		2.22			5.54	1.82		12.5			-5.67	5.71		
CN(C)c1ncnc(-c2ccc3nc(Nc4cc(CN5CCN(C(=O)CC(F)(F)F)CC5)ccn4)[nH]c3c2)c1Cl		18		65		1.3	-5.65			-0.841		12.7	9.13			-7.96	
COC(=O)c1sccc1S(=O)(=O)Nc1ccc(Nc2ccccc2)cc1OC		58		40.6		0.459	1.55			-7.86		18.2	3.38			-9.5	
O=S(=O)(c1ccccc1)N(CC(F)(F)F)c1ccc(C(O)(C(F)(F)F)C(F)(F)F)cc1		64.2		50.9		-2.07	-6.61			-5.89		0.186	22.5			11.1	
CCOC(=O)N1CCC(CN(Cc2ccc(Cl)cc2)Cc2ccc([N+](=O)[O-])s2)C1 (stereo not drawn)		55.4		97.5		-1.49	-4.57			7.92		16.2	16.5			-8.96	
COc1cc(Nc2nc(C)cc(-c3cnn4nc(OC)ccc34)n2)cc(C(F)(F)F)c1		26.4		47.8		-0.61	2.66			8.46		16.3	-9.1			-7.4	
Cc1c(NC(=O)COc2ccc(Cl)cc2C(=O)c2cc(F)cc(C(F)(F)F)c2)ccc(C(=O)O)c1F		59.6		58.6		4.37	17.9			-8.52		10.3	35.9			7.33	
O=C(O)CCCc1cc2cc(Cl)ccc2n1S(=O)(=O)c1ccc2ncsc2c1		58.8		99		-3.11	2.32			1.34		23.9	5.59			-4.2	
Cc1nc(-c2ccc(C(F)(F)F)cc2)sc1C(=O)NCc1ccc(OC(C)(C)C(=O)O)cc1		62.8		53.6		5.42	-7.38			-7.86		17.9	20.2			6.62	
O=C(NCc1ccccc1)c1ccc(S(=O)(=O)NCc2ccccc2)cc1		-9.13		39		3.04				-8.98		24.3	32.2			27.8	-2.64
